Converted amounts (≈) assume the structure as drawn. “Also recorded” adds a separate entry of the source. Peptide text beside a SMILES is read from it.
Key:
[1] = tested on: E. faecium ATCC 700221 (vancomycin-resistant strain); format: cell-based, Enterococcus faecium; conditions: ATCC 700221, 20 h
Excerpt: (§1) The following Gram-negative bacteria were used in our study: A. baumannii ATCC 19606, E. coli ATCC 11775, E. coli AIC221 (E. coli MG1655 phnE_2::FRT), E. coli AIC222 (E. coli MG1655 pmrA53 phnE_2::FRT (colistin resistant)), K. pneumoniae ATCC 13883, P. aeruginosa PAO1 and P. aeruginosa PA14. The following Gram-positive bacteria were also used in our study: S. aureus ATCC 12600, S. aureus ATCC BAA-1556 (methicillin-resistant strain), E. faecalis ATCC 700802 (vancomycin-resistant strain) and E. faecium ATCC 700221 (vancomycin-resistant strain). Bacteria were grown from frozen stocks and plated on Luria–Bertani (LB) or Pseudomonas isolation agar plates (P. aeruginosa strains) and incubated overnight at 37 °C. After the incubation period, a single colony was transferred to 5 ml of LB medium, and cultures were incubated overnight (16 h) at 37 °C. The following day, an inoculum was prepared by diluting the overnight cultures 1:100 in 5 ml of the respective media and incubating them at 37 °C until bacteria reached logarithmic phase (OD600 = 0.3–0.5).
(§2) The in vitro antimicrobial activity of the peptides was assessed by using the broth microdilution assay. […] Aqueous solutions of the peptides were added to the plate at concentrations ranging from 1 to 64 μmol l^−1. […] The optical density of the plates was measured at 600 nm using a spectrophotometer. All assays were done as three biological replicates.

E. coli AIC221 = format: cell-based, Escherichia coli; conditions: AIC221, 20 h
Excerpt: as §1, §2

E. coli ATCC 11775 = format: cell-based, Escherichia coli; conditions: ATCC 11775, 20 h
Excerpt: as §1, §2

A. baumannii ATCC 19606 = experiment: Neutropenic thigh infection mouse model; format: in vivo, CD-1 mice; conditions: for bacterial count, thigh infection (Panel 6d): neutropenic CD-1 mice
Protocol: Six-week-old female CD-1 mice from Charles River (stock number 18679700-022) were rendered neutropenic by two doses of cyclophosphamide (150 mg kg^−1) applied intraperitoneally with an interval of 72 h. One day after the last dose of cyclophosphamide, the mice were injected intramuscularly in their right thigh with a bacterial load of 10^6 c.f.u. ml^−1 of A. baumannii ATCC 19606 cells. The bacteria had been grown in LB broth, washed twice with PBS (pH 7.4), and resuspended to the desired concentration. Two hours after bacterial injection, peptides resuspended in water were administered intraperitoneally, and the untreated mice were inoculated with the same volume of deionized water. Before each injection, mice were anaesthetized with isoflurane and monitored for respiratory rate and pedal reflexes. Next, we monitored the establishment of the infection and euthanized the mice. The infected area was excised 2 days and 4 days post infection, homogenized using a bead beater for 20 min (25 Hz), and then serially diluted tenfold for quantification of colony-forming units in MacConkey agar plates. The experiments were performed with six mice per group. All experiments were performed blindly, and no animal subjects were excluded from the analysis. The thigh infection mouse model was approved by the University Laboratory Animal Resources from the University of Pennsylvania (protocol 807055). Statistical significance was determined using one-way ANOVA followed by Dunnett’s test in log10-transformed data to mitigate the effect of outliers; P values are presented for each group, with all groups being compared to the untreated control group.

[2] = tested on: E. faecalis ATCC 700802 (vancomycin-resistant strain); format: cell-based, Enterococcus faecalis; conditions: ATCC 700802, 20 h
Excerpt: as §1
as §2, with “All assays were done as three biological replicates.” left out

S. aureus ATCC 12600 = format: cell-based, Staphylococcus aureus; conditions: ATCC 12600, 20 h
Excerpt: as §1, §2

[3] = tested on: S. aureus ATCC BAA-1556 (methicillin-resistant strain); format: cell-based, Staphylococcus aureus; conditions: ATCC BAA-1556, 20 h
Excerpt: as §1, §2

K. pneumoniae ATCC 13883 = format: cell-based, Klebsiella pneumoniae; conditions: ATCC 13883, 20 h
Excerpt: as §1, §2

[4] = A. baumannii ATCC 19606, day 2, replicate 1
[5] = A. baumannii ATCC 19606, day 2, replicate 2
[6] = A. baumannii ATCC 19606, day 2, replicate 3
[7] = A. baumannii ATCC 19606, day 2, replicate 4
[8] = A. baumannii ATCC 19606, day 2, replicate 5
[9] = A. baumannii ATCC 19606, day 2, replicate 6
[10] = A. baumannii ATCC 19606, day 4, replicate 1
[11] = A. baumannii ATCC 19606, day 4, replicate 2
[12] = A. baumannii ATCC 19606, day 4, replicate 3
[13] = A. baumannii ATCC 19606, day 4, replicate 4
[14] = A. baumannii ATCC 19606, day 4, replicate 5
[15] = A. baumannii ATCC 19606, day 4, replicate 6

Row | SMILES | Minimal inhibitory concentration, E. faecium ATCC700221-VRE [1] [µM] | Minimal inhibitory concentration, E. coli AIC221 (E. coli AIC221) [µM] | Minimal inhibitory concentration, E. coli ATCC11775 (E. coli ATCC 11775) [µM] | bacterial count, thigh infection (Panel 6d) (A. baumannii ATCC 19606; [4]) | bacterial count, thigh infection (Panel 6d) (A. baumannii ATCC 19606; [5]) | bacterial count, thigh infection (Panel 6d) (A. baumannii ATCC 19606; [6]) | bacterial count, thigh infection (Panel 6d) (A. baumannii ATCC 19606; [7]) | bacterial count, thigh infection (Panel 6d) (A. baumannii ATCC 19606; [8]) | bacterial count, thigh infection (Panel 6d) (A. baumannii ATCC 19606; [9]) | bacterial count, thigh infection (Panel 6d) (A. baumannii ATCC 19606; [10]) | bacterial count, thigh infection (Panel 6d) (A. baumannii ATCC 19606; [11]) | bacterial count, thigh infection (Panel 6d) (A. baumannii ATCC 19606; [12]) | bacterial count, thigh infection (Panel 6d) (A. baumannii ATCC 19606; [13]) | bacterial count, thigh infection (Panel 6d) (A. baumannii ATCC 19606; [14]) | bacterial count, thigh infection (Panel 6d) (A. baumannii ATCC 19606; [15]) | Minimal inhibitory concentration, E. faecalis ATCC700802-VRE [2] [µM] | Minimal inhibitory concentration, S. aureus ATCC12600 (S. aureus ATCC 12600) [µM] | Minimal inhibitory concentration, S. aureus ATCC BAA-1556-MRSA [3] [µM] | Minimal inhibitory concentration, K. pneumoniae ATCC133883 (K. pneumoniae ATCC 13883) [µM] | Reduction in bacterial counts, 2 days post treatment (A. baumannii ATCC 19606; neutropenic thigh infection, single intraperitoneal dose, n = 6)
1 | CC[C@H](C)[C@H](N)C(=O)N[C@@H](Cc1ccccc1)C(=O)N[C@@H](CC(C)C)C(=O)N[C@@H](Cc1c[nH]cn1)C(=O)N[C@@H](CC(C)C)C(=O)N[C@@H](CCCCN)C(=O)N[C@H](C(=O)N[C@@H](CC(C)C)C(=O)N[C@@H](CCCCN)C(=O)N[C@H](C(=O)N[C@H](C(=O)N[C@@H](CCCNC(=N)N)C(=O)N[C@@H](CC(C)C)C(=O)N[C@@H](CC(C)C)C(=O)O)[C@@H](C)CC)[C@@H](C)CC)[C@@H](C)CC [Elephasin-2] (H-IFLHLKILKIIRLL-OH; N-terminus and C-terminus assumed) | 1 (≈ 1.73 µg/mL) | 2 (≈ 3.47 µg/mL) | 16 (≈ 27.7 µg/mL) | 2e+007 | 4e+007 | 4e+007 | 4e+007 | 8e+007 | 1e+008 | 1400000 | 1000000 | 4000000 | 1000000 | 800000 | 4000000 | 8 (≈ 13.9 µg/mL) | 1 (≈ 1.73 µg/mL) | 1 (≈ 1.73 µg/mL) | – | –
2 | CC[C@H](C)[C@H](NC(=O)[C@H](CO)NC(=O)[C@H](CCCNC(=N)N)NC(=O)[C@H](C)NC(=O)[C@H](Cc1c[nH]cn1)NC(=O)[C@H](CC(C)C)NC(=O)[C@H](CS)NC(=O)[C@H](C)NC(=O)[C@@H](N)CCCNC(=N)N)C(=O)N[C@@H](C)C(=O)N[C@@H](CCCNC(=N)N)C(=O)N[C@@H](CC(C)C)C(=O)N[C@@H](Cc1c[nH]cn1)C(=O)N[C@@H](CCCCN)C(=O)N[C@@H](CCCNC(=N)N)C(=O)N[C@@H](Cc1c[nH]c2ccccc12)C(=O)N[C@@H](CCCNC(=N)N)C(=O)N1CCC[C@H]1C(=O)N[C@H](C(=O)N[C@@H](Cc1c[nH]cn1)C(=O)N[C@@H](CCC(N)=O)C(=O)NCC(=O)N[C@@H](CC(C)C)C(=O)NCC(=O)N[C@@H](CC(C)C)C(=O)N[C@@H](CCCCN)C(=O)O)C(C)C [Mammuthusin-2] (H-RACLHARSIARLHKRWRPVHQGLGLK-OH; N-terminus and C-terminus assumed) | – | – | – | 800000 | 2e+007 | 4000000 | 2000000 | 1e+007 | 4000000 | 800000 | 600000 | 6000000 | 6000000 | 2000000 | 4000000 | – | – | – | – | –
3 | CC[C@H](C)[C@H](NC(=O)[C@@H](N)CC(C)C)C(=O)N[C@H](C(=O)N[C@@H](CS)C(=O)N[C@@H](Cc1ccccc1)C(=O)N[C@@H](Cc1ccccc1)C(=O)N[C@@H](CCCNC(=N)N)C(=O)N[C@@H](CCC(N)=O)C(=O)N[C@@H](CC(C)C)C(=O)N[C@@H](CCCCN)C(=O)N[C@@H](Cc1ccccc1)C(=O)N[C@@H](Cc1c[nH]cn1)C(=O)N[C@@H](Cc1ccccc1)C(=O)O)C(C)C [Megalocerin-1] (H-LIVCFFRQLKFHF-OH; N-terminus and C-terminus assumed) | 8 (≈ 13.6 µg/mL) | – | – | 1.2e+008 | 2.0e+007 | 2.2e+008 | 2.0e+008 | 1.2e+008 | 2.8e+008 | 6.0e+008 | 1.0e+009 | 4.0e+007 | 6.0e+007 | 4.0e+007 | 2.0e+007 | – | – | – | 64 (≈ 109 µg/mL) | –
4 | CC(C)C[C@H](NC(=O)CNC(=O)[C@H](CCCNC(=N)N)NC(=O)[C@H](CCCCN)NC(=O)[C@H](CCCNC(=N)N)NC(=O)[C@@H](N)CCCCN)C(=O)N[C@@H](CCCCN)C(=O)N[C@@H](CC(C)C)C(=O)N[C@@H](C)C(=O)N[C@H](C(=O)N[C@@H](C)C(=O)N[C@@H](CC(C)C)C(=O)N[C@@H](CO)C(=O)N[C@@H](CC(C)C)C(=O)N[C@@H](CC(N)=O)C(=O)N[C@@H](CC(N)=O)C(=O)N[C@@H](CCCCN)C(=O)N[C@@H](Cc1ccccc1)C(=O)O)[C@@H](C)O [Mylodonin-2] (H-KRKRGLKLATALSLNNKF-OH; N-terminus and C-terminus assumed) | – | – | – | 1200000 | 2400000 | 1000000 | 1800000 | 200000 | 400000 | 1.2e+007 | 1.2e+008 | 2.0e+007 | 2.0e+007 | 4.0e+007 | 2.0e+007 | – | – | – | – | as much as polymyxin B; also recorded: most potent activity, which was comparable to that of the positive control antibiotic, polymyxin B

— paper PMC11310081, “Deep-learning-enabled antibiotic discovery through molecular de-extinction” (Nature Biomedical Engineering, 2024)
